Reference: ChEMBL document CHEMBL4261593, “Synthesis and antibacterial activity of novel 3-O-arylalkylcarbamoyl-3-O-descladinosyl-9-O-(2-chlorobenzyl)oxime clarithromycin derivatives” (2018)
Converted amounts (≈) assume the structure as drawn.

What was measured:
Assay type in all cases: functional
Streptococcus pyogenes [1] = experiment: Antibacterial activity against erythromycin-susceptible Streptococcus pyogenes 1 after 24 hrs by broth dilution assay; conditions: Streptococcus pyogenes, 1, 24 h
Staphylococcus aureus [2] = experiment: Antibacterial activity against erythromycin-susceptible Staphylococcus aureus ATCC 25923 after 24 hrs by broth dilution assay; conditions: ATCC 25923, 24 h
Escherichia coli = experiment: Antibacterial activity against penicillin-susceptible Escherichia coli ATCC 25922 after 24 hrs by broth dilution assay; conditions: ATCC 25922, 24 h
Bacillus subtilis = experiment: Antibacterial activity against penicillin-susceptible Bacillus subtilis ATCC 9372 after 24 hrs by broth dilution assay; conditions: ATCC 9372, 24 h
Streptococcus pneumoniae [3] = experiment: Antibacterial activity against erythromycin-resistant Streptococcus pneumoniae B1 expressing ermB gene after 24 hrs by broth dilution assay; conditions: B1, 24 h
Streptococcus pneumoniae [4] = experiment: Antibacterial activity against erythromycin-resistant Streptococcus pneumoniae A22072 expressing mefA gene after 24 hrs by broth dilution assay; conditions: A22072, 24 h
Staphylococcus aureus [5] = experiment: Antibacterial activity against […] Staphylococcus aureus ATCC 29213 after 24 hrs by broth dilution assay; conditions: ATCC 29213, 24 h
Staphylococcus aureus [6] = experiment: Antibacterial activity against penicillin-resistant Staphylococcus aureus ATCC 31007 after 24 hrs by broth dilution assay; conditions: ATCC 31007, 24 h
Pseudomonas aeruginosa = experiment: Antibacterial activity against penicillin-susceptible Pseudomonas aeruginosa ATCC 27853 after 24 hrs by broth dilution assay; conditions: ATCC 27853, 24 h
Streptococcus pneumoniae [7] = experiment: Antibacterial activity against erythromycin-resistant Streptococcus pneumoniae AB11 expressing ermB and mefA genes after 24 hrs by broth dilution assay; conditions: AB11, 24 h
Streptococcus pyogenes [8] = experiment: Antibacterial activity against erythromycin-resistant Streptococcus pyogenes 2 after 24 hrs by broth dilution assay; conditions: Streptococcus pyogenes, 2, 24 h

Row | Structure (SMILES) | MIC (Streptococcus pyogenes [1]) | MIC (Staphylococcus aureus [2]) | MIC (Escherichia coli) | MIC (Bacillus subtilis) | MIC (Streptococcus pneumoniae [3]) | MIC (Streptococcus pneumoniae [4]) | MIC (Staphylococcus aureus [5]) | MIC (Staphylococcus aureus [6]) | MIC (Pseudomonas aeruginosa) | MIC (Streptococcus pneumoniae [7]) | MIC (Streptococcus pyogenes [8])
1 | CC[C@H]1OC(=O)[C@H](C)[C@@H](OC(=O)NCc2ccc(OC)cc2)[C@H](C)[C@@H](O[C@@H]2O[C@H](C)C[C@H](N(C)C)[C@H]2O)[C@](C)(OC)C[C@@H](C)/C(=N/OCc2ccccc2Cl)[C@H](C)[C@@H](O)[C@]1(C)O | 4 µg/mL (≈ 4.48 µM) | 16 µg/mL (≈ 17.9 µM) | 128 µg/mL (≈ 143 µM) | 4 µg/mL (≈ 4.48 µM) | 128 µg/mL (≈ 143 µM) | 2 µg/mL (≈ 2.24 µM) | 128 µg/mL (≈ 143 µM) | 8 µg/mL (≈ 8.96 µM) | 128 µg/mL (≈ 143 µM) | 128 µg/mL (≈ 143 µM) | 16 µg/mL (≈ 17.9 µM)
2 | CC[C@H]1OC(=O)[C@H](C)[C@@H](OC(=O)NCc2ccccc2Cl)[C@H](C)[C@@H](O[C@@H]2O[C@H](C)C[C@H](N(C)C)[C@H]2O)[C@](C)(OC)C[C@@H](C)/C(=N/OCc2ccccc2Cl)[C@H](C)[C@@H](O)[C@]1(C)O | 4 µg/mL (≈ 4.46 µM) | 8 µg/mL (≈ 8.92 µM) | 128 µg/mL (≈ 143 µM) | 2 µg/mL (≈ 2.23 µM) | 128 µg/mL (≈ 143 µM) | 1 µg/mL (≈ 1.11 µM) | 128 µg/mL (≈ 143 µM) | 4 µg/mL (≈ 4.46 µM) | 128 µg/mL (≈ 143 µM) | 128 µg/mL (≈ 143 µM) | 16 µg/mL (≈ 17.8 µM)
3 | CC[C@H]1OC(=O)[C@H](C)[C@@H](OC(=O)NCc2ccco2)[C@H](C)[C@@H](O[C@@H]2O[C@H](C)C[C@H](N(C)C)[C@H]2O)[C@](C)(OC)C[C@@H](C)/C(=N/OCc2ccccc2Cl)[C@H](C)[C@@H](O)[C@]1(C)O | 4 µg/mL (≈ 4.69 µM) | 16 µg/mL (≈ 18.8 µM) | 128 µg/mL (≈ 150 µM) | 4 µg/mL (≈ 4.69 µM) | 128 µg/mL (≈ 150 µM) | 1 µg/mL (≈ 1.17 µM) | 128 µg/mL (≈ 150 µM) | 8 µg/mL (≈ 9.38 µM) | 128 µg/mL (≈ 150 µM) | 128 µg/mL (≈ 150 µM) | 16 µg/mL (≈ 18.8 µM)
4 | CC[C@H]1OC(=O)[C@H](C)[C@@H](O[C@H]2C[C@@](C)(OC)[C@@H](O)[C@H](C)O2)[C@H](C)[C@@H](O[C@@H]2O[C@H](C)C[C@H](N(C)C)[C@H]2O)[C@](C)(OC)C[C@@H](C)C(=O)[C@H](C)[C@@H](O)[C@]1(C)O [CLARITHROMYCIN] | 0.03 µg/mL (≈ 0.0401 µM) | 0.25 µg/mL (≈ 0.334 µM) | 32 µg/mL (≈ 42.8 µM) | 0.25 µg/mL (≈ 0.334 µM) | 128 µg/mL (≈ 171 µM) | 2 µg/mL (≈ 2.67 µM) | 64 µg/mL (≈ 85.6 µM) | 256 µg/mL (≈ 342 µM) | 32 µg/mL (≈ 42.8 µM) | 128 µg/mL (≈ 171 µM) | 256 µg/mL (≈ 342 µM)
5 | CC[C@H]1OC(=O)[C@H](C)[C@@H](O[C@H]2C[C@@](C)(OC)[C@@H](O)[C@H](C)O2)[C@H](C)[C@@H](O[C@@H]2O[C@H](C)C[C@H](N(C)C)[C@H]2O)[C@](C)(O)C[C@@H](C)CN(C)[C@H](C)[C@@H](O)[C@]1(C)O [AZITHROMYCIN] | 0.03 µg/mL (≈ 0.0401 µM) | 0.25 µg/mL (≈ 0.334 µM) | 8 µg/mL (≈ 10.7 µM) | 0.5 µg/mL (≈ 0.668 µM) | 128 µg/mL (≈ 171 µM) | 4 µg/mL (≈ 5.34 µM) | 8 µg/mL (≈ 10.7 µM) | 256 µg/mL (≈ 342 µM) | 16 µg/mL (≈ 21.4 µM) | 128 µg/mL (≈ 171 µM) | 256 µg/mL (≈ 342 µM)
6 | CC[C@H]1OC(=O)[C@H](C)[C@@H](OC(=O)NCCc2ccccc2Cl)[C@H](C)[C@@H](O[C@@H]2O[C@H](C)C[C@H](N(C)C)[C@H]2O)[C@](C)(OC)C[C@@H](C)/C(=N/OCc2ccccc2Cl)[C@H](C)[C@@H](O)[C@]1(C)O | 2 µg/mL (≈ 2.2 µM) | 8 µg/mL (≈ 8.78 µM) | 128 µg/mL (≈ 141 µM) | 2 µg/mL (≈ 2.2 µM) | 128 µg/mL (≈ 141 µM) | 1 µg/mL (≈ 1.1 µM) | 128 µg/mL (≈ 141 µM) | 8 µg/mL (≈ 8.78 µM) | 128 µg/mL (≈ 141 µM) | 128 µg/mL (≈ 141 µM) | 16 µg/mL (≈ 17.6 µM)
7 | CC[C@H]1OC(=O)[C@H](C)[C@@H](OC(=O)NC2CCCCC2)[C@H](C)[C@@H](O[C@@H]2O[C@H](C)C[C@H](N(C)C)[C@H]2O)[C@](C)(OC)C[C@@H](C)/C(=N/OCc2ccccc2Cl)[C@H](C)[C@@H](O)[C@]1(C)O | 2 µg/mL (≈ 2.34 µM) | 16 µg/mL (≈ 18.7 µM) | 128 µg/mL (≈ 150 µM) | 4 µg/mL (≈ 4.68 µM) | 128 µg/mL (≈ 150 µM) | 1 µg/mL (≈ 1.17 µM) | 128 µg/mL (≈ 150 µM) | 8 µg/mL (≈ 9.36 µM) | 128 µg/mL (≈ 150 µM) | 128 µg/mL (≈ 150 µM) | 16 µg/mL (≈ 18.7 µM)
8 | CC[C@H]1OC(=O)[C@H](C)[C@@H](OC(=O)NC2CCCC2)[C@H](C)[C@@H](O[C@@H]2O[C@H](C)C[C@H](N(C)C)[C@H]2O)[C@](C)(OC)C[C@@H](C)/C(=N/OCc2ccccc2Cl)[C@H](C)[C@@H](O)[C@]1(C)O | 2 µg/mL (≈ 2.38 µM) | 16 µg/mL (≈ 19 µM) | 128 µg/mL (≈ 152 µM) | 4 µg/mL (≈ 4.76 µM) | 128 µg/mL (≈ 152 µM) | 0.5 µg/mL (≈ 0.595 µM) | 128 µg/mL (≈ 152 µM) | 8 µg/mL (≈ 9.52 µM) | 128 µg/mL (≈ 152 µM) | 128 µg/mL (≈ 152 µM) | 16 µg/mL (≈ 19 µM)
9 | CC[C@H]1OC(=O)[C@H](C)[C@@H](O)[C@H](C)[C@@H](O[C@@H]2O[C@H](C)C[C@H](N(C)C)[C@H]2O)[C@](C)(OC)C[C@@H](C)/C(=N/OCc2ccccc2Cl)[C@H](C)[C@@H](O)[C@]1(C)O | 4 µg/mL (≈ 5.48 µM) | 64 µg/mL (≈ 87.7 µM) | 128 µg/mL (≈ 175 µM) | 16 µg/mL (≈ 21.9 µM) | 128 µg/mL (≈ 175 µM) | 4 µg/mL (≈ 5.48 µM) | 128 µg/mL (≈ 175 µM) | 32 µg/mL (≈ 43.9 µM) | 128 µg/mL (≈ 175 µM) | 128 µg/mL (≈ 175 µM) | 128 µg/mL (≈ 175 µM)
